Results reported in ChEMBL document CHEMBL1201862, “PubChem BioAssay data set” (2004).
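Five compound concentrations were applied to cells in 96-well plates for 48 hours; endpoints were derived by simple linear interpolation of the resulting dose-response curve. GI50 marks 50% less growth.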 The source made the active and inactive calls. Cut-off read from the data, not from the text of the source: active = GI50 up to about 1.1 µM and inactive = higher.

Assays:
Experiment in all cases: growth of human tumour cells (NCI), 48 h
EKVX = system: EKVX
DU-145 = system: DU-145
CAKI-1 = system: CAKI-1
HCT-116 = system: HCT-116
Hs-578T = system: Hs-578T
OVCAR-8 = system: OVCAR-8
UACC-62 = system: UACC-62
SK-MEL-5 = system: SK-MEL-5
A549 = system: A549
A498 = system: A498
K562 = system: K562
SK-MEL-28 = system: SK-MEL-28
786-0 = system: 786-0
PC-3 = system: PC-3
KM12 = system: KM12
SW-620 = system: SW-620
MOLT-4 = system: MOLT-4
HOP-62 = system: HOP-62
OVCAR-3 = system: OVCAR-3
NCI-H522 = system: NCI-H522
ACHN = system: ACHN
MDA-MB-435 = system: MDA-MB-435
IGROV-1 = system: IGROV-1
LOX IMVI = system: LOX IMVI
OVCAR-4 = system: OVCAR-4
SNB-19 = system: SNB-19
SN12C = system: SN12C
MDA-MB-231 = system: MDA-MB-231
UO-31 = system: UO-31
HT-29 = system: HT-29
Malme-3M = system: Malme-3M
NCI-H460 = system: NCI-H460
OVCAR-5 = system: OVCAR-5
HOP-92 = system: HOP-92
UACC-257 = system: UACC-257
MDA-N = system: MDA-N
SF-539 = system: SF-539
BT-549 = system: BT-549
COLO 205 = system: COLO 205
SF-268 = system: SF-268
HL-60 = system: HL-60
M14 = system: M14
HCC 2998 = system: HCC 2998
MCF7 = system: MCF7
SK-MEL-2 = system: SK-MEL-2
NCI/ADR-RES = system: NCI/ADR-RES
SF-295 = system: SF-295
SK-OV-3 = system: SK-OV-3
U-251 = system: U-251
NCI-H23 = system: NCI-H23
CCRF-CEM = system: CCRF-CEM
T47D = system: T47D
HCT-15 = system: HCT-15
TK-10 = system: TK-10
RXF 393 = system: RXF 393
SNB-75 = system: SNB-75
SR = system: SR
NCI-H226 = system: NCI-H226
RPMI-8226 = system: RPMI-8226

COc1ccc([C@H]2C=C(c3cc(F)c(Cl)cc3Cl)NC(=S)N2)cc1
GI50 (EKVX): 28 µM (inactive)
GI50 (DU-145): 39.9 µM (inactive)
GI50 (CAKI-1): 29.4 µM (inactive)
GI50 (HCT-116): 27 µM (inactive)
GI50 (Hs-578T): 79.1 µM (inactive)
GI50 (OVCAR-8): 40.3 µM (inactive)
GI50 (UACC-62): 28.3 µM (inactive)
GI50 (SK-MEL-5): 11.9 µM (inactive)
GI50 (A549): 35.3 µM (inactive)
GI50 (A498): 28.1 µM (inactive)
GI50 (K562): 15.2 µM (inactive)
GI50 (SK-MEL-28): 47 µM (inactive)
GI50 (786-0): 33.6 µM (inactive)
GI50 (PC-3): 19.9 µM (inactive)
GI50 (KM12): 29.2 µM (inactive)
GI50 (SW-620): 30.9 µM (inactive)
GI50 (MOLT-4): 17.7 µM (inactive)
GI50 (HOP-62): 38.6 µM (inactive)
GI50 (OVCAR-3): 33.7 µM (inactive)
GI50 (NCI-H522): 31.8 µM (inactive)
GI50 (ACHN): 36.9 µM (inactive)
GI50 (MDA-MB-435): 12.8 µM (inactive)
GI50 (IGROV-1): 31.4 µM (inactive)
GI50 (LOX IMVI): 37.3 µM (inactive)
GI50 (OVCAR-4): 28.3 µM (inactive)
GI50 (SNB-19): 61 µM (inactive)
GI50 (SN12C): 21.3 µM (inactive)
GI50 (MDA-MB-231): 27.2 µM (inactive)
GI50 (UO-31): 36.6 µM (inactive)
GI50 (HT-29): 26.2 µM (inactive)
GI50 (Malme-3M): 40.6 µM (inactive)
GI50 (NCI-H460): 20.1 µM (inactive)
GI50 (OVCAR-5): 43.1 µM (inactive)
GI50 (HOP-92): 24 µM (inactive)
GI50 (UACC-257): 24.9 µM (inactive)
GI50 (MDA-N): 11.1 µM (inactive)
GI50 (SF-539): 42.4 µM (inactive)
GI50 (BT-549): 32.7 µM (inactive)
GI50 (COLO 205): 19.1 µM (inactive)
GI50 (SF-268): 48.5 µM (inactive)
GI50 (HL-60): 11.3 µM (inactive)
GI50 (M14): 32.5 µM (inactive)
GI50 (HCC 2998): 23.9 µM (inactive)
GI50 (MCF7): 32.6 µM (inactive)
GI50 (SK-MEL-2): 25.1 µM (inactive)
GI50 (NCI/ADR-RES): 25.7 µM (inactive)
GI50 (SF-295): 24.3 µM (inactive)
GI50 (SK-OV-3): 44.1 µM (inactive)
GI50 (U-251): 26.7 µM (inactive)
GI50 (NCI-H23): 37.5 µM (inactive)
GI50 (CCRF-CEM): 30.2 µM (inactive)
GI50 (T47D): 18.7 µM (inactive)
GI50 (HCT-15): 28.7 µM
GI50 (TK-10): 32.7 µM (inactive)
GI50 (RXF 393): 18.8 µM (inactive)
GI50 (SNB-75): 18.2 µM (inactive)
GI50 (SR): 5.24 µM (inactive)
GI50 (NCI-H226): 56.1 µM (inactive)
GI50 (RPMI-8226): 21.7 µM (inactive)

CC1/C=C/C=C/CC/C=C/C=C/C=C/C=C/C(OC2OC(C)C(O)C(N)C2O)CC2OC(CC(O)C(O)CCC(O)CC(O)CC(O)CC(=O)OC(C)C(C)C1O)CC(O)C2C(=O)O (stereo not drawn)
GI50 (EKVX): 16.7 µM (inactive)
GI50 (DU-145): 17.7 µM (inactive)
GI50 (CAKI-1): 17.5 µM (inactive)
GI50 (HCT-116): 17.2 µM (inactive)
GI50 (Hs-578T): 24.8 µM (inactive)
GI50 (OVCAR-8): 21.6 µM (inactive)
GI50 (UACC-62): 20.9 µM (inactive)
GI50 (SK-MEL-5): 19.7 µM (inactive)
GI50 (A549): 18 µM (inactive)
GI50 (A498): 18.7 µM (inactive)
GI50 (K562): 34.4 µM (inactive)
GI50 (SK-MEL-28): 19.7 µM (inactive)
GI50 (786-0): 17 µM (inactive)
GI50 (PC-3): 18.8 µM (inactive)
GI50 (KM12): 26.8 µM (inactive)
GI50 (SW-620): 20.7 µM (inactive)
GI50 (MOLT-4): 20.2 µM (inactive)
GI50 (HOP-62): 19.4 µM (inactive)
GI50 (OVCAR-3): 20 µM (inactive)
GI50 (NCI-H522): 19.3 µM (inactive)
GI50 (ACHN): 17.7 µM (inactive)
GI50 (MDA-MB-435): 17.6 µM (inactive)
GI50 (IGROV-1): 17.6 µM (inactive)
GI50 (LOX IMVI): 18.2 µM (inactive)
GI50 (OVCAR-4): 15.2 µM (inactive)
GI50 (SNB-19): 18.3 µM (inactive)
GI50 (SN12C): 15.9 µM (inactive)
GI50 (MDA-MB-231): 17.6 µM (inactive)
GI50 (UO-31): 21 µM (inactive)
GI50 (HT-29): 17.3 µM (inactive)
GI50 (Malme-3M): 17.9 µM (inactive)
GI50 (NCI-H460): 17.5 µM (inactive)
GI50 (OVCAR-5): 17.9 µM (inactive)
GI50 (HOP-92): 45.6 µM (inactive)
GI50 (UACC-257): 17 µM (inactive)
GI50 (MDA-N): 17.3 µM (inactive)
GI50 (SF-539): 16.1 µM (inactive)
GI50 (BT-549): 17 µM (inactive)
GI50 (COLO 205): 21.8 µM (inactive)
GI50 (SF-268): 24.9 µM (inactive)
GI50 (HL-60): 23.9 µM (inactive)
GI50 (M14): 19.7 µM (inactive)
GI50 (HCC 2998): 14.8 µM (inactive)
GI50 (MCF7): 17.5 µM (inactive)
GI50 (SK-MEL-2): 28.6 µM (inactive)
GI50 (NCI/ADR-RES): 21.3 µM (inactive)
GI50 (SF-295): 22.3 µM (inactive)
GI50 (SK-OV-3): 23.2 µM (inactive)
GI50 (U-251): 17.4 µM (inactive)
GI50 (NCI-H23): 18.1 µM (inactive)
GI50 (CCRF-CEM): 28.8 µM (inactive)
GI50 (T47D): 57.1 µM (inactive)
GI50 (HCT-15): 27.3 µM
GI50 (TK-10): 17.5 µM (inactive)
GI50 (RXF 393): 13.8 µM (inactive)
GI50 (SNB-75): 18.6 µM (inactive)
GI50 (SR): 16.9 µM (inactive)
GI50 (NCI-H226): 13.5 µM (inactive)
GI50 (RPMI-8226): 22.6 µM (inactive)
